From ChEMBL document CHEMBL1201862, “PubChem BioAssay data set” (2004)
Active and inactive are the calls of the source.

How the values were obtained:
[1] = molecular target: T1, Trace amine-associated receptor 1 (Homo sapiens, UniProt Q96RJ0); assay: Counterscreen for agonists of the human trace amine associated receptor 1 (hTAAR1): Fluorescence-based cell-based high throughput dose response assay to identify hTAAR1 agonist that also desensitize TAAR1 receptor response.; assay type: functional
T1 sequence (Q96RJ0 whole entry): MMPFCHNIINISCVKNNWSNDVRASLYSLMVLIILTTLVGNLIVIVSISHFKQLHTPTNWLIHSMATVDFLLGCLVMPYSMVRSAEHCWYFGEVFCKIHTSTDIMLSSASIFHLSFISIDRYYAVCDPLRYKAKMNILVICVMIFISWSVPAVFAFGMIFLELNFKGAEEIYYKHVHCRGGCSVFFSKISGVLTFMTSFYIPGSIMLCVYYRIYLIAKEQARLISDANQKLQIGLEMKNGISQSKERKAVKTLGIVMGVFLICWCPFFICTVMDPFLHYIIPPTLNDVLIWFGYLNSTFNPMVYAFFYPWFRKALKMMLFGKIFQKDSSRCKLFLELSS

[2] = cells; assay type: functional, cell-based
[3] = cells; assay type: functional, cell-based; remark: listed apart in the source
[4] = molecular target: T1, Trace amine-associated receptor 1; assay: Fluorescence-based cell-based high throughput dose response assay to identify agonists of the human trace amine associated receptor 1 (TAAR1).; assay type: functional
[5] = molecular target: Cytochrome P450 3A4 (Homo sapiens, UniProt P08684);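 further: CYP3A4 tested as one member of a cytochrome P450 panel screen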
[6] = molecular target: T2, Cytochrome P450 1A2 (Homo sapiens, UniProt P05177);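 further: PubChem cytochrome P450 panel assay, CYP1A2 panel member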
T2 sequence (P05177 whole entry): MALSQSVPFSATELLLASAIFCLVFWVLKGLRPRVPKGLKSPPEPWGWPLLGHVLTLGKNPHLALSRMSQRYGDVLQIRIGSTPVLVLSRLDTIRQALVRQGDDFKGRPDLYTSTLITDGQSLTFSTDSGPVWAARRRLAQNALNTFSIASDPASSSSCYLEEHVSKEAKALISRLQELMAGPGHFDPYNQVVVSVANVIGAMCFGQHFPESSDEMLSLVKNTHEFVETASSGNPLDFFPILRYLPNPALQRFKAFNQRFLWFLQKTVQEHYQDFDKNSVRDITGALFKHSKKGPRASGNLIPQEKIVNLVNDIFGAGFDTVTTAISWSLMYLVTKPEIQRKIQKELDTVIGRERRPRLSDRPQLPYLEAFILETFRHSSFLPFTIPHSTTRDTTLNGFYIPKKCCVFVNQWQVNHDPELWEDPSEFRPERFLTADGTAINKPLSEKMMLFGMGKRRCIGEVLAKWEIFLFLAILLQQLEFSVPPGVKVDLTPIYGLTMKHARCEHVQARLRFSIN

[7] = molecular target: DNA dC->dU-editing enzyme APOBEC-3A (Homo sapiens, UniProt P31941); assay: Dose Response confirmation of small molecule APOBEC3A DNA Deaminase Inhibitors via a fluorescence-based single-stranded DNA deaminase assay. [Related pubchem assays (depositor defined):AID493011, AID493024]; assay type: functional
[8] = molecular target: DNA dC->dU-editing enzyme APOBEC-3G (Homo sapiens, UniProt Q9HC16); assay type: functional;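 further: Dose-response counterscreen measuring inhibition of APOBEC3G DNA deaminase activity, run while confirming APOBEC3A inhibitors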
[9] = molecular target: T3, DNA repair protein RAD52 homolog (Homo sapiens, UniProt P43351); assay type: functional, biochemical
T3 sequence (P43351 whole entry): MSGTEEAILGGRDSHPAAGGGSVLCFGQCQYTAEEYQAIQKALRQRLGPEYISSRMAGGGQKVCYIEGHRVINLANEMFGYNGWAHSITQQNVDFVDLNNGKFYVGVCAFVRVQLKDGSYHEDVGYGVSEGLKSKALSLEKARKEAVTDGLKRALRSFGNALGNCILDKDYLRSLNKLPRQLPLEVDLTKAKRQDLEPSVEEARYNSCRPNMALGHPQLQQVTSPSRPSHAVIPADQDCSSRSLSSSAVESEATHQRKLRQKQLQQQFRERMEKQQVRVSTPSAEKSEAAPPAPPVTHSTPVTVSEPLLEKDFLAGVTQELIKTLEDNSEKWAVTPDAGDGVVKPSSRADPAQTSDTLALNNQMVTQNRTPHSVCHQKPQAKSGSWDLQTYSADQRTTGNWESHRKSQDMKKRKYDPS

[10] = toxicity to human hepatoma HepG2 cells – cell-based, cherry-picked samples, cytotoxicity control, dose response (AID 1159577); assay type: functional
[11] = P. falciparum Dd2 growth inhibitors, dose response, SYBR Green, cherry-picked samples (AID 1159567); assay type: functional, cell-based
[12] = reduction of Shn3 3'UTR-driven luciferase in osteoblasts – cell-based, Clone20 osteoblasts, firefly luciferase, cherry-picked, dose response (AID 624132); assay type: functional;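 further: firefly luciferase luminescence from reporter carrying the Shn3 3'UTR in osteoblasts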
[13] = decrease of insulin promoter-GFP reporter – imaging, high-content screening, mouse beta cells (AID 1628); assay type: functional; details: MIN6
[14] = MIN6 cell viability loss – mouse insulinoma, cytotoxicity control, dose response (AID 2122); assay type: functional;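 further: confirmatory high-throughput counterscreen run to flag cytotoxic compounds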
[15] = non-specific 3'UTR reporter inhibition in Clone20-Shn3RL – cell-based, Renilla luciferase, cherry-picked, counter-screen for Shn3 inhibitor project, dose response (AID 624133); assay type: functional
[16] = loss of viability in HepG2 cells – cell-based, CellTiter-Glo, cherry-picked, cytotoxicity control for Shn3 inhibitor project, dose response (AID 624134); assay type: functional
[17] = viability loss in CEM21 cells – cell-based, CellTiter-Glo luminescence, cherry-picked, cytotoxicity control for viral fusion inhibitor project, dose response (AID 652042); assay type: functional;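 further: potency for signal decrease meaning cytotoxicity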
[18] = HIV-1 AD8 envelope cell-cell fusion blockers – cherry-pick, dose response (AID 652062); assay type: functional, cell-based;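 further: luciferase signal from cell-cell fusion driven by HIV-1 clade B AD8 Env; potency is for inhibitors of fusion seen as a drop in luminescence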
[19] = off-target signal loss in HeLa-CEM21 co-culture – HeLa F-luc CTL cells, cherry-picked, counter-screen for HIV-1 Env fusion inhibitor project, dose response (AID 652040); assay type: functional, cell-based;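 further: potency for signal decrease marking cytotoxic or nonspecific inhibition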
[20] = blockers of HIV-1 envelope-mediated cell-cell fusion – cherry-pick, dose response (AID 652057); assay type: functional, cell-based

Chain of DNA dC->dU-editing enzyme APOBEC-3A (P31941 whole entry): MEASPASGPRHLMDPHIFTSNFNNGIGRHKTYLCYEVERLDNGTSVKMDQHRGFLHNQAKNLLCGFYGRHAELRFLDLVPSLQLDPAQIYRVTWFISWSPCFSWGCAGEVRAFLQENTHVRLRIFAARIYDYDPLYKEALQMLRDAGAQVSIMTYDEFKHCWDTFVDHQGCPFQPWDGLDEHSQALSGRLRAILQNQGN
Chain of DNA dC->dU-editing enzyme APOBEC-3G (Q9HC16 whole entry): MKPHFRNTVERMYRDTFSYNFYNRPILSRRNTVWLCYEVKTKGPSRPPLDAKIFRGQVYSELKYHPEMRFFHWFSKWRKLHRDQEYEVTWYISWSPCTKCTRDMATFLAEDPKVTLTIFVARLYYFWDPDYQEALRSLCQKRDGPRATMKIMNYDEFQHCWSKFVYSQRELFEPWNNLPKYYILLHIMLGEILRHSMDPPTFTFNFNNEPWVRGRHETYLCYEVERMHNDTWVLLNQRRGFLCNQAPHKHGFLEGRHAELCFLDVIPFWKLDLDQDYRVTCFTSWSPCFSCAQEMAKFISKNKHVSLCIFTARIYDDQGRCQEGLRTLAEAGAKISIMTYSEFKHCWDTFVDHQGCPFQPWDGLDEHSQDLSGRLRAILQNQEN
Chain of Cytochrome P450 3A4 (P08684 whole entry): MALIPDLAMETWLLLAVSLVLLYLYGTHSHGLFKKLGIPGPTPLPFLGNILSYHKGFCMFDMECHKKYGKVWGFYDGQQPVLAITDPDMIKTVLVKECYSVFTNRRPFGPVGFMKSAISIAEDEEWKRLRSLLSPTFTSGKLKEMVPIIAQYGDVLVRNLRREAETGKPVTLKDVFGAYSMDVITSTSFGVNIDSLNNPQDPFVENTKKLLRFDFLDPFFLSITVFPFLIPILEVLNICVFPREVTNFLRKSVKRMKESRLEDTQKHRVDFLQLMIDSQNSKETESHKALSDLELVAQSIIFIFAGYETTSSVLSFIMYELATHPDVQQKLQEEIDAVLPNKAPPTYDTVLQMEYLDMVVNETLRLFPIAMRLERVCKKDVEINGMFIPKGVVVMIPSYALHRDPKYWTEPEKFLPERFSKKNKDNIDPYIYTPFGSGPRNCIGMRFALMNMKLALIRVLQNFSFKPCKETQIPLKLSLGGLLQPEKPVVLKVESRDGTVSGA

With `OCCNc1nc(Nc2cccc(O)c2)nc2ccccc12` the IC50 [1] was 0.261 µM (active), the IC50 [2] was > 29.9 µM (inactive) and the EC50 [3] was > 29.9 µM (inactive). The EC50 [4] was 0.0786 µM (active).
In the case of `O=C(c1ccncc1)N1CCC2(CC1)CN(C(c1ccccc1)c1ccccc1)C2`, the AC50 [5] is reported as “inconclusive” and the AC50 [6] is reported as 15.8 µM (inconclusive).
With `N=C(N)N/N=C/c1c(Cl)cccc1Cl` [GUANABENZ] the IC50 [1] was 1.17 µM (active), the IC50 [2] was > 29.9 µM (inactive) and the EC50 [3] was > 29.9 µM (inactive). The EC50 [4] was > 3.33 µM (active).
For `O=C(c1cnccn1)N1CCC2(CC1)CN(C(c1ccccc1)c1ccccc1)C2`, the AC50 [5] was “inconclusive” and the AC50 [6] was 25.1 µM (inconclusive).
In the case of `CCOC(=O)[C@]12CCCC=C1N(Cc1ccc3c(c1)OCO3)C(=O)[C@H](CC(=O)NCCc1ccccc1OC)C2`, the IC50 [1] is reported as 5.85 µM (active), the IC50 [2] is reported as > 29.9 µM (inactive) and the EC50 [3] is reported as > 29.9 µM (inactive). For the same compound, the EC50 [4] was 4.06 µM (active).
In the case of `C[N+]1(C)[C@@H]2CC[C@H]1C[C@@H](OC(=O)C(CO)c1ccccc1)C2` (some centres not stated), the IC50 [7] is reported as 2.23 µM (active) and the IC50 [8] is reported as 3.18 µM (active).
In the case of `O=C(c1ccc(Cn2c(=S)[nH]c3ccc(N4CCOCC4)cc3c2=O)cc1)N1CCC(N2CCCCC2)CC1`, the AC50 [9] is reported as 13.9 µM (active).
For `Cc1ccc(-c2ccc([C@H]3[C@@H](CO)N4CCCCN(S(=O)(=O)c5cccc(C)c5)C[C@H]34)cc2)cc1`, the AC50 [10] was 9.89 µM (active) and the AC50 [11] was 1.31 µM (active).
In the case of `C=CCn1c(NCCc2ccccc2)nc2c1c(=O)n(C)c(=O)n2C`, the AC50 [12] is reported as 1.83 µM (active), the IC50 [13] is reported as 2.56 µM (active) and the IC50 [14] is reported as 1.86 µM (active). For the same compound, the AC50 [15] was 7.83 µM (active) and the AC50 [16] was 57.2 µM (active).
In the case of `Cc1ccc(C)c(CNc2ccc(S(=O)(=O)N3CCCCC3)cc2)c1`, the AC50 [17] is reported as 63.8 µM (active), the AC50 [18] is reported as 2.31 µM (active) and the AC50 [19] is reported as < 0.26 µM (active). For the same compound, the AC50 [20] was 50.5 µM (active).
For `C=CCn1c(NC(=O)c2ccc(C)cc2)c(C#N)sc1=N`, the IC50 [7] was 3.47 µM (active) and the IC50 [8] was 4.44 µM (active).
